Measurements from patent publication US20100041672A1, “USE OF QUINOLINE DERIVATIVES IN THE TREATMENT OF PAIN AND IRRITABLE BOWEL SYNDROME” (GLAXO GROUP LIMITED, priority 2007, published 2010).

Experiments:
Random Hooded rats = assay: rat joint pain model of chronic inflammatory pain (intra-articular FCA, hind paw weight bearing); assay type: in vivo; details: for Statistics for hypersensitivity data (weight bearing), significance vs vehicle, Day 14: Day 14 post FCA; for Statistics for hypersensitivity data (weight bearing), significance vs vehicle, Day 15: Day 15 post FCA; for Statistics for hypersensitivity data (weight bearing), significance vs vehicle, Day 17: Day 17 post FCA
Experimental: Random Hooded rats, 150-180 g, obtained from Charles River UK, were anaesthetised under gaseous anaesthetic and the area surrounding the left and right knee joint shaved and cleaned as for aseptic surgery. Animals were injected with 150 μl of FCA into the left knee joint (intra-articular injection). Animals were immediately allowed to recover from anaesthetic in a warmed/oxygenated environment until being returned to their home cage on paper bedding. No further post-op care was provided.
(§1) Rats were tested prior to surgery and from 18 h post FCA (minimum of once weekly) for weight bearing (g) and joint diameter (mm). Weight bearing is measured by the animal's ability to place body weight across both hind paws on a Dual Channel Weight Averager which was calibrated each day prior to use using a 10 g weight (Rat capacitance tester—Linton Instruments). Hind paw weight bearing data was calculated and expressed as the percentage of the contralateral paw.
All data were expressed as mean±s.e.m.
(§2) Prior to FCA intra-articular injection into the left knee, rats display even weight bearing. By day 1 post-insult weight bearing had shifted such that the majority of the body weight was transmitted through the contralateral limb. By day 10 this effect was maintained and at this point animals were randomised across treatment groups. Once daily dosing with vehicle, SB742457 or celecoxib began on day 13 and continued up to and including day 17.
as §1, with “100” for “10”
as §2, with “SB792988A” for “SB742457”, “17. […] AUC was calculated using Microsoft Excel.” for “17.”

rats [1] = assay: FCA induced hypersensitivity rat model (intraplantar FCA, weight bearing); assay type: in vivo; details: 1 hour post dose; for weight bearing % reversal: 10 mg/kg p.o., 24 hrs after FCA
Experimental: (§3) Naïve weight bearing readings were taken. The hypersensitivity to pain was measured using the Rat incapacitance tester (Linton instruments). All rats (180-220 g) received an intraplantar injection of 100 ul of FCA (Freund's complete adjuvant) into the left hind paw. The FCA was sonicated for 15 minutes prior to use. 24 hrs after administration of the FCA, pre-dose weight bearing readings were taken. All animals were then ranked and randomised for dosing according to their FCA window (predose difference in grams—naïve difference in grams). Rats with FCA window less than 30 were excluded from the study.
Animals were then dosed orally with either vehicle, SB42457 (0.01, 0.1, 1 and 10 mg/kg p.o.) or celecoxib (10 mg/kg p.o.) as appropriate according to ranking and randomisation. Animals were assessed in the weight bearing apparatus 1 hour post dose.
The study was blind and randomised by FCA window using the Latin square method. % reversals were calculated by using the naïve, pre-dose and post dose values as follows: % Reversal=[(Pre-dose−Post-dose)/(Pre-dose−Naïve)]×100.
Graphs were plotted using Prism3. Statistical analysis was carried out using ANOVA and Fischer LSD test from statistical package Statistica 6.
In this study a positive control was also tested (celecoxib).
as §3, with “(200-220” for “(180-220”
Animals were then dosed orally with vehicle, SB-792988-A (0.01, 0.1, 1 and 10 mg/kg p.o.), SB-399885-A (10 mg/kg p.o.) or celecoxib (10 mg/kg p.o.) as appropriate according to ranking and randomisation. Animals were assessed in the weight bearing apparatus 1 hour post dose.
Graphs and were plotted using Prism3. Statistical analysis was carried out using ANOVA and Fischer LSD test from statistical package Statistica 6.

male Sprague Dawley rats = assay: rat intra rectal mustard oil model of visceral pain; assay type: in vivo; details: behaviours counted 25 minutes
Experimental: All behavioural responses consistent with the presence of pain were determined following intra rectal injection of mustard oil in male Sprague Dawley rats. Typical behavioural responses consistent with the presence of pain following intra-colonic mustard oil injection include: arching, abdominal lifting, abdominal tensing, stretching, extending the rear leg (when lying down), raising and lowering the testicles, tip-toeing and writhing.
Male Sprague Dawley rats (130 g-160 g) were briefly sedated with 50% oxygen/50% carbon dioxide and 0.2 ml of 3% mustard oil injected into the colorectum, 1.5 cm from the anus. The anus was plugged with vaseline and animals placed in observational cages to which they had previously been acclimatised for 45 minutes prior to mustard oil injection. The number of visceral pain related behaviours, which consisted primarily of abdominal arching, were counted over a 25 minute period and the animals culled by cervical dislocation.
In separate studies, the effects of alosetron (0.1, 0.3 and 1.0 mg/kg n=10 per group), gabapentin (10, 30 and 100 mg/kg n=10 per group) and amitriptyline (3, 10 and 30 mg/kg n=9-10 per group) or vehicle (saline for alosetron and amitriptyline 10% 1-Methyl-2-pyrolidone in saline for gabapentin n=10 per study) given sub cutaneously 15 minutes prior to injection of 3% mustard oil were examined on pain behaviour. Results in FIGS. 4, 5 and 6 are expressed as mean±sem percentage of behaviours compared to vehicle treated animals and were statistically compared to vehicle treated animals using a one way ANOVA with Dunnett's comparison, p<0.05 considered significant.
The effect of SB742457 (0.03, 0.1, 1.0, 3.0 and 10 mg/kg, n=10 per group for the 0.03, 0.1 and 10 mg/kg groups, and n=20 for the 1.0 and 3.0 mg/kg groups) or vehicle (saline n=20) given orally 60 minutes prior to injection of mustard oil (3% mustard oil, 70% ethanol in saline) were examined on pain behaviour. The total number of visceral pain related behaviours, which consisted primarily of abdominal arching, were counted over a 25 minute period and the animals culled by cervical dislocation. Behaviours were normalised as the percentage of the vehicle group mean and expressed as mean+/−sem. Data was combined from two studies and normalised as the percentage of the vehicle group mean for each individual study and expressed as mean+/−sem for both studies. Percentage of behaviours compared to vehicle treated animals were analysed statistically using a one way ANOVA with Dunnett's comparison, p<0.05 considered significant, FIG. 10.
The effect of SB792988A (0.03, 0.1, 0.3, 1.0, 3.0 and 10 mg/kg, n=9 for 1.0 mg/kg, n=10 per group for the 0.03, 0.1 and 3.0 mg/kg groups, n=20 per group for the 0.3 and 10 mg/kg groups) or vehicle (saline n=20) given orally 60 minutes prior to injection of mustard oil (3% mustard oil, 70% ethanol in saline) were examined on pain behaviour. The total number of visceral pain related behaviours, which consisted primarily of abdominal arching, were counted over a 25 minute period and the animals culled by cervical dislocation. Behaviours were normalised as the percentage of the vehicle group mean and expressed as mean+/−sem. Data was combined from two studies and normalised as the percentage of the vehicle group mean for each individual study and expressed as mean+/−sem for both studies. Percentage of behaviours compared to vehicle treated animals were analysed statistically using a one way ANOVA with Dunnett's comparison, p<0.05 considered significant, FIG. 11.

rats [2] = assay: Chronic Constriction Injury (CCI) model of neuropathic pain in rats (mechanical allodynia, Von Frey hairs); assay type: in vivo, rat; details: 30 mg/kg b.i.d. po
Experimental: Under Isoflurane anaesthesia, the sciatic nerve in the left leg of the rat was exposed at mid thigh level and 4 loose ligatures of Chromic 4.0 gut tied around it. The wound was closed and secured with staples. The Sham operated animals underwent the same surgical technique except that the nerve was not ligated. […] The presence of mechanical (tactile) allodynia was assessed using the manual application of Von Frey hair monofilaments (Stoelting, Wood Dale, Ill., USA). Animals were placed in clear Perspex boxes on a raised perforated metallic platform, from below which the monofilaments were applied in ascending order to the plantar region of the hind paw (range: 1.4 g-26 g). Each hair was applied for approx. 3-5 seconds until a withdrawal response was observed. The lowest hair to give a withdrawal was recorded as the response after confirmation with reapplication of lower and/or higher hairs within the range tested.
All data are expressed as mean±s.e.m. Statistical analysis was carried out using Repeated Measures ANOVA (Statistica Version 6) to compare the vehicle treated groups with the drug treated groups (P<0.05 considered significant). Area Under Curve (AUC) calculations were performed within Excel and statistical analysis was carried out using a one-way ANOVA followed by Fischer LSD post-hoc test (Statistica Version 6) to compare the vehicle treated CCI and Sham groups with the drug treated groups (P<0.05 considered significant). Data recorded in Excel (Microsoft XP) and graphs produced in GraphPad Prism (Version 4).
By 8 days post-surgery neuropathy was beginning to develop as mechanical allodynia (assessed using mVFHs) was evident in all CCI operated groups compared to the Sham operated animals. This was maintained as a stable baseline until day 23 post-surgery (FIG. 12), when the animals were randomised and then chronically dosed with either SB742457 (10 mg/kg b.i.d. po), gabapentin (30 mg/kg b.i.d. po) or vehicle (1% methylcellulose; b.i.d. po) for 8 days (days 26-33 post-surgery). […] Three days after cessation of treatment the withdrawal thresholds of the drug treated groups had decreased back towards vehicle treated baseline levels.

[3] = 30 mg/kg oral once daily from day 13, SB742457 study
[4] = 30 mg/kg oral once daily from day 13, SB792988A study
[5] = 10 mg/kg sub cutaneously 15 minutes prior to 3% mustard oil
[6] = 30 mg/kg sub cutaneously 15 minutes prior to 3% mustard oil

Cc1ccc(-c2cc(C(F)(F)F)nn2-c2ccc(S(N)(=O)=O)cc2)cc1 [celecoxib, reference compound]
Statistics for hypersensitivity data, significance vs vehicle, AUC (Random Hooded rats; 30 mg/kg oral once daily days 13-17, AUC, SB742457 study): *** (*** = p < 0.001) | Statistics for hypersensitivity data (weight bearing), significance vs vehicle, Day 13 (Random Hooded rats; 30 mg/kg oral once daily from day 13, Day 13 post FCA, SB742457 study): * (* = p < 0.05) | Statistics for hypersensitivity data (weight bearing), significance vs vehicle, Day 14 (Random Hooded rats; [3]): *** (*** = p < 0.001) | Statistics for hypersensitivity data (weight bearing), significance vs vehicle, Day 14 (Random Hooded rats; [4]): * (* = p < 0.05) | Statistics for hypersensitivity data (weight bearing), significance vs vehicle, Day 15 (Random Hooded rats; [3]): *** (*** = p < 0.001) | Statistics for hypersensitivity data (weight bearing), significance vs vehicle, Day 15 (Random Hooded rats; [4]): *** (*** = p < 0.001) | Statistics for hypersensitivity data (weight bearing), significance vs vehicle, Day 16 (Random Hooded rats; 30 mg/kg oral once daily from day 13, Day 16 post FCA, SB792988A study): *** (*** = p < 0.001) | Statistics for hypersensitivity data (weight bearing), significance vs vehicle, Day 17 (Random Hooded rats; [3]): *** (*** = p < 0.001) | Statistics for hypersensitivity data (weight bearing), significance vs vehicle, Day 17 (Random Hooded rats; [4]): *** (*** = p < 0.001) | weight bearing % reversal (rats [1]; Table 5): 74.81 ± 8.79% | weight bearing % reversal (rats [1]; Table 7): 73.00 ± 6.01%

NCC1(CC(=O)O)CCCCC1 [gabapentin, reference compound]
reduction in behaviours compared to vehicle treated animals (male Sprague Dawley rats; [5]): 28% | reduction in behaviours compared to vehicle treated animals (male Sprague Dawley rats; [6]): 50% | reduction in behaviours compared to vehicle treated animals (male Sprague Dawley rats; 100 mg/kg sub cutaneously 15 minutes prior to 3% mustard oil): 69% | reversal of mechanical allodynia after 5 days of dosing (rats [2]; after 5 days of dosing): not significantly different to Sham levels | reversal of mechanical allodynia after 8 days of dosing (rats [2]; after 8 days of dosing): maximal reversal (P<0.001) back to Sham levels

Cc1[nH]cnc1CN1CCc2c(c3ccccc3n2C)C1=O [alosetron, reference compound]
reduction in behaviours compared to vehicle treated animals (male Sprague Dawley rats; 0.1 mg/kg sub cutaneously 15 minutes prior to 3% mustard oil): 56% | reduction in behaviours compared to vehicle treated animals (male Sprague Dawley rats; 0.3 mg/kg sub cutaneously 15 minutes prior to 3% mustard oil): 56% | reduction in behaviours compared to vehicle treated animals (male Sprague Dawley rats; 1.0 mg/kg sub cutaneously 15 minutes prior to 3% mustard oil): 54%

COc1ccc(S(=O)(=O)Nc2cc(Cl)cc(Cl)c2OC)cc1N1CCNCC1.Cl [SB399885A, N-(3,5-dichloro-2-methoxy-phenyl)-4-methoxy-3-piperazin-1-yl-benzenesulfonamide hydrochloride, reference compound]
weight bearing % reversal (rats [1]; Table 7): 15.26 ± 5.70% | effect on FCA induced hypersensitivity (rats [1]; p.o., intraplantar FCA): no effect

CN(C)CCC=C1c2ccccc2CCc2ccccc21 [amitriptyline, reference compound]
reduction in behaviours compared to vehicle treated animals (male Sprague Dawley rats; 3 mg/kg sub cutaneously 15 minutes prior to 3% mustard oil): 43% | reduction in behaviours compared to vehicle treated animals (male Sprague Dawley rats; [5]): 73% | reduction in behaviours compared to vehicle treated animals (male Sprague Dawley rats; [6]): 91%
